Measurements reported in PMC9241695, “Selective Metal Chelation by a Thiosemicarbazone Derivative Interferes with Mitochondrial Respiration and Ribosome Biogenesis in Candida albicans” (Microbiology Spectrum, 2022).
Converted amounts (≈) assume the structure as drawn.

How the values were obtained:
[1] = test system: C. albicans SC5314; experiment: qPCR of genes associated with ribosome biogenesis; format: cell-based, Candida albicans; conditions: CPX 0.5 or 2 μg/mL 8 h; DFO 64 µg/mL 6 h; TPEN 0.05 or 0.2 μg/mL 6 h
Procedure: Determination of SOD activity. SOD activity was measured using the Superoxide Dismutase Activity Assay Kit (Njjcbio, Nanjing, China) following the manufacturer's instructions. An overnight culture of C. albicans SC5314 was adjusted to 1 × 10^7 cells/mL with RPMI1640 medium and treated with 19ak at a final concentration of 0, 0.125, 0.25, 0.5, or 1 μg/mL for 6 h. After collection by centrifugation, the cells were broken by glass beads in extraction buffer and centrifuged at 4°C. The absorbance of the supernatant of each sample was measured with a microplate reader at450 nm.
Determination of catalase (CAT) activity. CAT activity was measured by using a Catalase Assay Kit (Solarbio, Beijing, China) following the manufacturer's instructions. An overnight culture of C. albicans SC5314 was adjusted to 1 × 10^6 cells/mL with RPMI1640 medium and treated as described above for SOD activity.
The decomposition of H2O2 is directly accompanied by a decrease in absorbance at 240 nm, and the difference in absorbance per unit time (ΔA240) is a measure of […]
Quantitative real-time polymerase chain reaction (qPCR) analysis. C. albicans SC5314 cells (1 × 10^6 cells/mL) were incubated with or without 19ak (0.5,2 […]
Total RNA was extracted using the hot phenol method, and the RNA quality was analyzed using a spectrophotometer (Eppendorf, Hamburg, Germany). The RNA was converted to cDNA using a cDNA Reverse
Transcription kit (Accurate Biotechnology, Hunan, China). PCR detection based on SYBR Green was performed on an Eppendorf real-time PCR system (Eppendorf, […]
Drug resistance study. Drug resistance studies were carried out by repeatedly treating C. albicans with an antifungal agent followed by MIC determination using […]

[2] = test system: A. fumigatus AF293; experiment: Antifungal susceptibility testing, microbroth dilution MIC; format: cell-based; conditions: Aspergillus fumigatus, AF293, 48 h, read-out: MIC (μg/mL) against fungi AF293
Description: (§1) Compound library. The thiosemicarbazone derivatives Triapine and COTI-2 were purchased from Med Chem Express (MCE). The other 87 thiosemicarbazones used in this study were previously synthesized by our collaborators (1, 2). Their structures are shown in Table 1 and Table S1 to help the reader clearly understand the relationship between structure and activity.
(§2) Strains and culture conditions. Clinically derived C. albicans isolates, including G5, F5, and Gu5, were kindly provided by Professor Joachim Morschhäuser of the University of Würzburg. Other clinical C. albicans isolates were kindly donated by Professor Qingguo Qi of Shandong University and Qianfoshan Hospital of Shandong Province Other Candida strains were obtained from Jinan Central Hospital.
(§3) The zap1 mutant and its complemented strain were kindly provided by Professor Aaron P. Mitchell of Carnegie Mellon University (3). The C. neoformans strains used in this study was kindly donated by Professor Guojian Liao of Southwest University and A. fumigatus strain used in this study was provided by Professor Ling Lu of Nanjing Normal University. […]
(§4) Antifungal susceptibility testing. To determine in vitro antifungal activities, the microbroth dilution method was carried out in RPMI1640 medium according to the guidelines of the Clinical and Laboratory Standards Institute (4, 5). The initial concentration in RPMI1640 medium was 1 × 10^3 CFU/mL for the C. albicans and C. neoformans suspensions but 1 × 10^4 CFU/mL for A. fumigatus. The range of final drug concentrations was 0.0156–64 μg/mL. The plates were incubated at35°C for 24 […]
(§5) h (for C. albicans, C. krusei, C. tropicalis, C. parapsilosis) or 48 h (for C. neoformans, A. fumigatus). The MIC was determined based on visible growth inhibition compared with the control. All experiments were performed in duplicate. […]

[3] = test system: C. neoformans H99; experiment: as above; format: cell-based; conditions: Cryptococcus neoformans, H99, 48 h, read-out: MIC (μg/mL) against fungi H99
Description: as §1, §2, §3, §4, §5

[4] = test system: C. albicans SC5314; experiment: as above; format: cell-based; conditions: Candida albicans, SC5314, 24 h, read-out: MIC (μg/mL) against fungi SC5314
Description: as §1, §2
as §3, with “University. Before in vitro and in vivo experiments, all C. albicans strains were grown on YPD agar plates. After culturing at 30°C for 24 h, colonies of each strain were cultured in liquid YPD medium at 30°C with continuous shaking” for “University.”
as §4, §5

SMILES	Expression of genes associated with ribosome biogenesis (qPCR) [1]	MIC [2]	MIC [3]	MIC [4]
Cc1cc(C2CCCCC2)n(O)c(=O)c1 [CPX, ciclopirox olamine]	no obvious effect			
CCC/C(=N\NC(=S)Nc1ccccc1Br)c1ccccn1 [Compound 19v]		4 µg/mL (≈ 10.6 µM)	0.25 µg/mL (≈ 0.663 µM)	1 µg/mL (≈ 2.65 µM)
S=C(N/N=C1\CCCc2cccnc21)N1CCN(c2ccccn2)CC1 [COTI-2, 4-(pyridine-2-yl)-N-([(8E)-5,6,7,8-tetrahydroquinolin-8-ylidene]amino) piperazine-1-carbothioamide, reference compound]		1 µg/mL (≈ 2.73 µM)	0.0625 µg/mL (≈ 0.171 µM)	0.5 µg/mL (≈ 1.36 µM)
S=C(N/N=C/c1ccccn1)N1CCOCC1 [Compound 19ao]		8 µg/mL (≈ 32 µM)	0.5 µg/mL (≈ 2 µM)	2 µg/mL (≈ 7.99 µM)
